Data as given in US11655260B2, “Heterocyclic compounds as arginase inhibitors” (Guangdong Newopp Biopharmaceuticals Co., Ltd., priority 2017, dated 2023).
Where a name gives a salt, the structure may show the parent alone.

What follows are compounds tested against T1, recombinant human arginase 1 (Homo sapiens, UniProt P05089) (assay: Arginase inhibitory activity test (urea detection), arginase 1). Settings: recombinant human arginase 1, L-arginine substrate, 37° C. for 120 min, urea measurement; read-out: Arg 1 enzymatic potency.
T1 sequence (P05089 1-322): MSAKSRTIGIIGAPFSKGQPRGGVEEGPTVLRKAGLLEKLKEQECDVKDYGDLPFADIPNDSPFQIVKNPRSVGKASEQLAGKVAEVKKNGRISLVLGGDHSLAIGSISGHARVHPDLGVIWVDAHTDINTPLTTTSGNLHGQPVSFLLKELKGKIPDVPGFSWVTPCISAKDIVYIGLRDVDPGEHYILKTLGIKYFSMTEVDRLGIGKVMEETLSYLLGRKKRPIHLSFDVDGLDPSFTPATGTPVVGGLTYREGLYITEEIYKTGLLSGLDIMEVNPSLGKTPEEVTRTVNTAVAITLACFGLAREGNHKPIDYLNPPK
Type: biochemical
From the text: Arginase Inhibitory Activity Test
Urea was used as the standard.

Row | SMILES | IC50 [µM]
1 | N[C@@H]1CCCCC1NS(=O)(=O)N1C[C@H](CCCB(O)O)[C@](N)(C(=O)O)C1 (mixture of isomers) [Example 20, (rac)trans-3-amino-1-(N-((rac)cis-2-aminocyclohexyl)sulfamoyl)-4-(3-boronopropyl)pyrrolidine-3-carboxylic Acid (Diastereomers), 2,2,2-trifluoroacetic Acid Salt (1:2)] | > 101
2 | CC(C)C(NS(=O)(=O)N1CC(CCCB(O)O)C(N)(C(=O)O)C1)C(=O)O (racemic) [Example 11, (rac)trans-3-amino-4-(3-boronopropyl)-1-(N—((S)-1-carboxy-2-methylpropyl)sulfamoyl)pyrrolidine-3-carboxylic Acid (Diastereomer), (1:1) 2,2,2-trifluoroacetic Acid Salt] | 1 to 101
3 | CCOC(=O)[C@]1(N)CN(S(=O)(=O)NCCN)C[C@@H]1CCCB(O)O (racemic) [Example 14, (rac)(3-(trans-4-amino-1-(N-(2-aminoethyl)sulfamoyl)-4-(ethoxycarbonyl)pyrrolidin-3-yl)propyl)boronic Acid, (1:2) 2,2,2-trifluoroacetic Acid Salt] | 0.1 to 1

Results, then the compound that gave them:

Row | IC50 [µM] | SMILES
4 | 1 to 101 | NC(=O)CNS(=O)(=O)N1C[C@H](CCCB(O)O)[C@](N)(C(=O)O)C1 (racemic) [Example 7, (rac)trans-3-amino-1-(N-(2-amino-2-oxoethyl)sulfamoyl)-4-(3-boronopropyl)pyrrolidine-3-carboxylic Acid, (1:1) 2,2,2-trifluoroacetic Acid Salt]
5 | 0.1 to 1 | C[C@H](N)CNS(=O)(=O)N1C[C@H](CCCB(O)O)[C@](N)(C(=O)O)C1 (racemic) [Example 18, (rac)trans-3-amino-1-(N—((S)-2-aminopropyl)sulfamoyl)-4-(3-boronopropyl)pyrrolidine-3-carboxylic Acid (Diastereomers), 2,2,2-trifluoroacetic Acid Salt (1:2)]
6 | 1 to 101 | CNS(=O)(=O)N1C[C@H](CCCB(O)O)[C@](N)(C(=O)O)C1 (racemic) [Example 2, (rac)trans-3-amino-4-(3-boronopropyl)-1-(N-methylsulfamoyl)pyrrolidine-3-carboxylic acid, (1:1) 2,2,2-trifluoroacetic Acid Salt]
